From ChEMBL document CHEMBL5442219

Legend:
Conditions in all cases: Compound concentration 10 µM
[1] = biological target: T1, Alpha-1D adrenergic receptor (Homo sapiens) (UniProt P25100)
T1 sequence (whole entry): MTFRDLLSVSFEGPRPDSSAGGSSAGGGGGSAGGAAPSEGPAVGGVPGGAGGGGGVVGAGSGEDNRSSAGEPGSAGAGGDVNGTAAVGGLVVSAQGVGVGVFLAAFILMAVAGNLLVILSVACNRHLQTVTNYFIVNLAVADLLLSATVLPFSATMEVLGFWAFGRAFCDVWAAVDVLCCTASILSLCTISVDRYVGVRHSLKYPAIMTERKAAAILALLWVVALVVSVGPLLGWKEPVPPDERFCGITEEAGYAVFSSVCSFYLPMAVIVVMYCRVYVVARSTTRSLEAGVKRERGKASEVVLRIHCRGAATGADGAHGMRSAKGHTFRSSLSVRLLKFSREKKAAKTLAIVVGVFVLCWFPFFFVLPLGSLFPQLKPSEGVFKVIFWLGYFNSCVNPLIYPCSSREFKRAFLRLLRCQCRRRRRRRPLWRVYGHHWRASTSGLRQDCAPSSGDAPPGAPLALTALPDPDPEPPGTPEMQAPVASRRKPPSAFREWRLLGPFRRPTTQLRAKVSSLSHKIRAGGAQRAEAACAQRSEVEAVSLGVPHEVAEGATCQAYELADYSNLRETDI

[2] = biological target: Beta-2 adrenergic receptor (Homo sapiens) (UniProt P07550)
[3] = biological target: T2, Muscarinic acetylcholine receptor M1 (Homo sapiens) (UniProt P11229)
T2 sequence (whole entry): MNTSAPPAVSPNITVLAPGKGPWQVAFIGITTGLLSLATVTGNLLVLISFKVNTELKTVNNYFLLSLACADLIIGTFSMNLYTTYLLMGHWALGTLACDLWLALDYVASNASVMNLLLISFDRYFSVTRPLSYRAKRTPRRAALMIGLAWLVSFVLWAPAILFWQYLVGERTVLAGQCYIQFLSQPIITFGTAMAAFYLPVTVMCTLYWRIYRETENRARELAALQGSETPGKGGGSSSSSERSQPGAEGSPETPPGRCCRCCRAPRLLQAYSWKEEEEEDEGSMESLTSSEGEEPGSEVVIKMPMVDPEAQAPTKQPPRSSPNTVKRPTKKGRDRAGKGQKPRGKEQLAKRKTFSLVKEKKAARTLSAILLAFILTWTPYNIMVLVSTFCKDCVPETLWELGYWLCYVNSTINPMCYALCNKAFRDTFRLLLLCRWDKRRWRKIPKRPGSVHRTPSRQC

[4] = biological target: Muscarinic acetylcholine receptor M3 (Homo sapiens) (UniProt P20309)
[5] = biological target: Histamine H3 receptor (Homo sapiens) (UniProt Q9Y5N1)
[6] = biological target: Histamine H4 receptor (Homo sapiens) (UniProt Q9H3N8)
[7] = biological target: 5-hydroxytryptamine receptor 2A (Homo sapiens) (UniProt P28223)
[8] = biological target: 5-hydroxytryptamine receptor 6 (Homo sapiens) (UniProt P50406)
[9] = biological target: Delta-type opioid receptor (Homo sapiens) (UniProt P41143)
[10] = biological target: Mu-type opioid receptor (Homo sapiens) (UniProt P35372)
[11] = biological target: Sigma intracellular receptor 2 (Homo sapiens) (UniProt Q5BJF2)
[12] = biological target: Beta-3 adrenergic receptor (Homo sapiens) (UniProt P13945)
[13] = biological target: T3, Alpha-2B adrenergic receptor (Homo sapiens) (UniProt P18089)
T3 sequence (whole entry): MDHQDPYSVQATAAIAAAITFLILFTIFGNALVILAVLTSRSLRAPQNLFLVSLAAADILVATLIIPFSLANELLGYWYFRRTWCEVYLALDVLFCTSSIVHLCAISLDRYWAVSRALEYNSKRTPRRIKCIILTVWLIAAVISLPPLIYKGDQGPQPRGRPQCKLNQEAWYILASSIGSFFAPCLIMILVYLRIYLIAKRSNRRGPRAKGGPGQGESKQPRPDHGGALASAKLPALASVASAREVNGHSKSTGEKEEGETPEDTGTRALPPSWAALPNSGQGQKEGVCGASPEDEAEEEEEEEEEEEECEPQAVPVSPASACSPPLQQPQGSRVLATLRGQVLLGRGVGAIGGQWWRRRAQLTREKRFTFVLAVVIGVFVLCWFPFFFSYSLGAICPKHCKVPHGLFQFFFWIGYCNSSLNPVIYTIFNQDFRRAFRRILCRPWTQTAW

[14] = biological target: D(1B) dopamine receptor (Homo sapiens) (UniProt P21918)
[15] = biological target: 5-hydroxytryptamine receptor 1D (Homo sapiens) (UniProt P28221)
[16] = biological target: T4, 5-hydroxytryptamine receptor 2C (Homo sapiens) (UniProt P28335)
T4 sequence (whole entry): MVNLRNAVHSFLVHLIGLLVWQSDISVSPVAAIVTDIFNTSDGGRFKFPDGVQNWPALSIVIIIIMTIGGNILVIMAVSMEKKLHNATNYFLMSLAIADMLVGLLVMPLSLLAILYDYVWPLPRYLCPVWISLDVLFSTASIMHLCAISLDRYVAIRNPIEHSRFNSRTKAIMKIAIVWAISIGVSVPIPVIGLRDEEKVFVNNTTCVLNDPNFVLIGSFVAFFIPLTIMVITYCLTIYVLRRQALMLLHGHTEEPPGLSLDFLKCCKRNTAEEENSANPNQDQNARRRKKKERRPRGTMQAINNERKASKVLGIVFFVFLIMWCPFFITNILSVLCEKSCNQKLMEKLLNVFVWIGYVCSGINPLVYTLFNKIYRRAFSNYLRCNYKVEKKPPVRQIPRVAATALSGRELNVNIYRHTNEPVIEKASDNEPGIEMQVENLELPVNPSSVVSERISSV

[17] = biological target: 5-hydroxytryptamine receptor 7 (Homo sapiens) (UniProt P34969)
Sequence of 5-hydroxytryptamine receptor 7 (Homo sapiens) (P34969 whole entry): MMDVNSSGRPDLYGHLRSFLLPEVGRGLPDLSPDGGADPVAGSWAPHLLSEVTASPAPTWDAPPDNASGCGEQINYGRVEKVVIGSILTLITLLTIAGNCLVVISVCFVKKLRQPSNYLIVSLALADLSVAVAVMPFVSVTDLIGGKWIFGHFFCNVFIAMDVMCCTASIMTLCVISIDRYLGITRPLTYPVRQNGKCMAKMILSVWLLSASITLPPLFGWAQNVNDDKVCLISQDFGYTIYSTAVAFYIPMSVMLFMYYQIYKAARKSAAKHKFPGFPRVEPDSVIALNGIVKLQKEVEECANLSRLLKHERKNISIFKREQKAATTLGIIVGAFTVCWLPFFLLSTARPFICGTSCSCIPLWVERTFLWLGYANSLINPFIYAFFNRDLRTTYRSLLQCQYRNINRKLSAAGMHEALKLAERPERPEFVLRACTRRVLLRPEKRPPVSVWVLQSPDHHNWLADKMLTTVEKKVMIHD

Sequence of 5-hydroxytryptamine receptor 6 (Homo sapiens) (P50406 whole entry): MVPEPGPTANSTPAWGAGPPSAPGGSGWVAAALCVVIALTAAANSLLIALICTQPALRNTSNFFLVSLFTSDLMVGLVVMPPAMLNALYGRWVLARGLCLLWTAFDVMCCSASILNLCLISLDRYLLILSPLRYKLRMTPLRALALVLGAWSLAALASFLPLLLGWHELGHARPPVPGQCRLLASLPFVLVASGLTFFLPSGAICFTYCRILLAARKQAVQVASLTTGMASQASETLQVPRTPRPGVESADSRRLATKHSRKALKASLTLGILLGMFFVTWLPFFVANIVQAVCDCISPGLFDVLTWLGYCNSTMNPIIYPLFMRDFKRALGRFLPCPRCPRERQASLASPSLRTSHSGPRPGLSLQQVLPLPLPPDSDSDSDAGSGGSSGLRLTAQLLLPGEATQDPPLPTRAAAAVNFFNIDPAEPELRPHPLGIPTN
Sequence of Histamine H3 receptor (Homo sapiens) (Q9Y5N1 whole entry): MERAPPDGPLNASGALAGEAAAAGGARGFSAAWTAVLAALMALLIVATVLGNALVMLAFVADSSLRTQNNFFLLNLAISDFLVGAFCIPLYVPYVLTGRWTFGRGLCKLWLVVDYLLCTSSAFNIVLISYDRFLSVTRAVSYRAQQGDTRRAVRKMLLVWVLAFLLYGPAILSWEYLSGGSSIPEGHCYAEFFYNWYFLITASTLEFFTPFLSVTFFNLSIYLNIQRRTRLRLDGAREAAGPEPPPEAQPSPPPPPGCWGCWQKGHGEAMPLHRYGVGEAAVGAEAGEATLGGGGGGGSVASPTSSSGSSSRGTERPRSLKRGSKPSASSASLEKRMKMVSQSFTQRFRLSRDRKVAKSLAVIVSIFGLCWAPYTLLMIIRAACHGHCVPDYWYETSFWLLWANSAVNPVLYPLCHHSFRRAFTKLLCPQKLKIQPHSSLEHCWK
Sequence of 5-hydroxytryptamine receptor 1D (Homo sapiens) (P28221 whole entry): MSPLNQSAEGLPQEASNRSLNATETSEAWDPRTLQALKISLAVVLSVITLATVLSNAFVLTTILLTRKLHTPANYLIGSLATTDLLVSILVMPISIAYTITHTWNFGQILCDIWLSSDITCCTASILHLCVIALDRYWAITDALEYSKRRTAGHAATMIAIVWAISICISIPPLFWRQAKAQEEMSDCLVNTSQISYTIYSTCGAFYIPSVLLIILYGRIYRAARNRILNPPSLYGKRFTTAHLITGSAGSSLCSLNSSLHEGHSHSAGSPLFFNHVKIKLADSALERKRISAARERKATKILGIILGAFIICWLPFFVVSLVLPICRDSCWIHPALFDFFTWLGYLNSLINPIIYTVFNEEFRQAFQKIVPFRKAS
Sequence of Beta-2 adrenergic receptor (Homo sapiens) (P07550 whole entry, looked up): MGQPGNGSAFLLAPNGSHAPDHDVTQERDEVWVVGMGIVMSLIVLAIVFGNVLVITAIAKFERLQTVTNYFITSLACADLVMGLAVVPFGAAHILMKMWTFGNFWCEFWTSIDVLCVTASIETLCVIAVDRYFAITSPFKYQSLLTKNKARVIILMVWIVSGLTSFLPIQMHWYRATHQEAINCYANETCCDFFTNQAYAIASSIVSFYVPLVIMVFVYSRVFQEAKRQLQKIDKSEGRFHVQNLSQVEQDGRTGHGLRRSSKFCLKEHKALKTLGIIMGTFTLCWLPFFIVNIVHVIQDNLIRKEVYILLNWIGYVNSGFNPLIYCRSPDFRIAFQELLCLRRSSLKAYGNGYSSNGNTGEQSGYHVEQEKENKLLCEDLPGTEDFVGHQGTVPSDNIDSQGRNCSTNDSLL
Sequence of Beta-3 adrenergic receptor (Homo sapiens) (P13945 whole entry, looked up): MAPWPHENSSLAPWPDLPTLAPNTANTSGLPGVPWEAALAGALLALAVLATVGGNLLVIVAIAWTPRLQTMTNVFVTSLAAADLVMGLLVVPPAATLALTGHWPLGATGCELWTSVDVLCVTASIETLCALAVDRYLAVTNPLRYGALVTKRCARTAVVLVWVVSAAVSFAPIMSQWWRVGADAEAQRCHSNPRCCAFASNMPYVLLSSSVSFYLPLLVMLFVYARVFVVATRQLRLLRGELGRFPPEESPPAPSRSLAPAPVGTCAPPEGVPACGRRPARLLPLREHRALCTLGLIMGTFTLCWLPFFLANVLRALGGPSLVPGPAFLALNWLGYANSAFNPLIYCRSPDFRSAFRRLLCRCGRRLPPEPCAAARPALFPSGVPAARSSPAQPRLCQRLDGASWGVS
Sequence of Histamine H4 receptor (Homo sapiens) (Q9H3N8 whole entry): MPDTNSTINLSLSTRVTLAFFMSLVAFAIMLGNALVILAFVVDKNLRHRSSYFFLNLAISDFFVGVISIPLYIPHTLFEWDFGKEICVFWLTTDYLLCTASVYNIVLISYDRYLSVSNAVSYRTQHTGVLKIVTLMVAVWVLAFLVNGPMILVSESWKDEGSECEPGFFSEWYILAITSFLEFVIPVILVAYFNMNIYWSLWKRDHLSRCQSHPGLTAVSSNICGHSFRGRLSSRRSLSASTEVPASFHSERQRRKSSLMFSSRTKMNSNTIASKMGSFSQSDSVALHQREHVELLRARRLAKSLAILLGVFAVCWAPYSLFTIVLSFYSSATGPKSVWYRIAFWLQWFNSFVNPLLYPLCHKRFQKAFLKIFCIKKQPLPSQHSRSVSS
Sequence of Sigma intracellular receptor 2 (Homo sapiens) (Q5BJF2 whole entry): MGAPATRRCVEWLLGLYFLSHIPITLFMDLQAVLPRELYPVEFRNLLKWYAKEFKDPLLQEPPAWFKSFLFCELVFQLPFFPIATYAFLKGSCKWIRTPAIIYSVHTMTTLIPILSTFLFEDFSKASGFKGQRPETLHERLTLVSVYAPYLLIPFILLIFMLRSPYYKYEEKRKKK
Sequence of Mu-type opioid receptor (Homo sapiens) (P35372 whole entry): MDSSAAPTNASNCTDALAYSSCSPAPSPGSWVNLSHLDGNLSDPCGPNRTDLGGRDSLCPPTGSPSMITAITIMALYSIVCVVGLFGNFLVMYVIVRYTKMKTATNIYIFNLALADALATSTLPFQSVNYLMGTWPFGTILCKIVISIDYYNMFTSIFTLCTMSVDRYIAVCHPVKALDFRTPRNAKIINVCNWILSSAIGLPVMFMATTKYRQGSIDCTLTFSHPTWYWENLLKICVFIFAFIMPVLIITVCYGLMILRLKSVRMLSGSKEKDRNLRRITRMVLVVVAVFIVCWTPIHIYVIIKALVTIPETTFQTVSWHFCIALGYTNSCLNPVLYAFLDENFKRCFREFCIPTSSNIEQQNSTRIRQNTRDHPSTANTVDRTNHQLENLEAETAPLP
Sequence of 5-hydroxytryptamine receptor 2A (Homo sapiens) (P28223 whole entry): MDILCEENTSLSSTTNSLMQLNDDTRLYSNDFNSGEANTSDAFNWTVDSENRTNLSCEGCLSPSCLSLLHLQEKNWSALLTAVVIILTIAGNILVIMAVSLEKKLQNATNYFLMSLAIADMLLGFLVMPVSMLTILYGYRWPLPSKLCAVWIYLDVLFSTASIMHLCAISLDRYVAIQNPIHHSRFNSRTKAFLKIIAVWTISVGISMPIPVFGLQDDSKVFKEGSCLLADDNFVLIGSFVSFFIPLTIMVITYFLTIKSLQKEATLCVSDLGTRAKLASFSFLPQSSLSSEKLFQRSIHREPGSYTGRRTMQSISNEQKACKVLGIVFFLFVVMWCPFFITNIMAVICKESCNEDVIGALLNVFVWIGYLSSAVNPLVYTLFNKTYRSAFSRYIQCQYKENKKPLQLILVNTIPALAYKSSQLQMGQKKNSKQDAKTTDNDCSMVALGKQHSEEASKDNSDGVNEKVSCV
Sequence of D(1B) dopamine receptor (Homo sapiens) (P21918 whole entry): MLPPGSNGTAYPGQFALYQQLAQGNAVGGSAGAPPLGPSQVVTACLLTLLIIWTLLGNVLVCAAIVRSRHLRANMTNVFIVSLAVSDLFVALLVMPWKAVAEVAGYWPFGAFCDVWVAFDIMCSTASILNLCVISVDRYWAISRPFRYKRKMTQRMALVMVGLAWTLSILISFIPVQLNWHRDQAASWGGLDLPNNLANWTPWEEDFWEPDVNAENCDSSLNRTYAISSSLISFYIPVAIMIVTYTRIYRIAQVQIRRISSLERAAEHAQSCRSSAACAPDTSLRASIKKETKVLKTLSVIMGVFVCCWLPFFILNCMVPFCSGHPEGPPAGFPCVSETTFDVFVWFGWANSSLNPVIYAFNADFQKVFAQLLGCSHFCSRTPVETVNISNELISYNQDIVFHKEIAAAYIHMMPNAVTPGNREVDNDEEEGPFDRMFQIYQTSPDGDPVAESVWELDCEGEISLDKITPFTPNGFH
Sequence of Delta-type opioid receptor (Homo sapiens) (P41143 whole entry): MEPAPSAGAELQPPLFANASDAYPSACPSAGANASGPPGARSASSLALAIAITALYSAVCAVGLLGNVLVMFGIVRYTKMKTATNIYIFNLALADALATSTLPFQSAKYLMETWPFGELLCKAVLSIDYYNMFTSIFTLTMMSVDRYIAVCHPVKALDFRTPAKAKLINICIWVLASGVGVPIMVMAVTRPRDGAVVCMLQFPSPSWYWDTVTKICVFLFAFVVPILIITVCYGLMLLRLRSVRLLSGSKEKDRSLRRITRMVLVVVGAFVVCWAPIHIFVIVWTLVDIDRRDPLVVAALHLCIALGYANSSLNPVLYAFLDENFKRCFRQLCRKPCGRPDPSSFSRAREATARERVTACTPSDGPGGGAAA

| SMILES | inhibition [1] | inhibition [2] | inhibition [3] | inhibition [4] | inhibition [5] | inhibition [6] | inhibition [7] | inhibition [8] | inhibition [9] | inhibition [10] | inhibition [11] | inhibition [12] | inhibition [13] | inhibition [14] | inhibition [15] | inhibition [16] | inhibition [17] |
| --- | --- | --- | --- | --- | --- | --- | --- | --- | --- | --- | --- | --- | --- | --- | --- | --- | --- |
| C[C@H](NC[C@H](O)CP(=O)(O)CC1CCCCC1)c1ccc(Cl)c(Cl)c1 | 8.86% | -1.65% | 8.07% | -3.76% | 17.5% | 1.86% | -0.59% | 2.61% | -5.34% | 60.4% | 26.7% | 38.3% | – | – | – | – | – |
| S=C(NCCCc1c[nH]cn1)NCCCN(Cc1ccc(Cl)c(Cl)c1)c1ccc(Br)cn1 | 65.9% | 40% | 60.7% | 48.4% | 100% | 99.3% | 85.2% | 74% | 27% | 28.7% | 97.7% | – | 94.8% | 51.4% | 149% | 100% | 74.9% |
| O=C(Cc1ccccc1)Nc1nc2ccc(Cl)cc2c2nc(-c3ccco3)nn12 | -5.53% | 2.33% | 5.61% | – | – | 6.75% | 16.8% | -2.97% | – | 17.8% | -6.83% | -9.26% | 4.67% | – | – | -5.69% | – |
| N#Cc1cccc(C(=O)Nc2cc(-c3ccccc3)nn2-c2ccccc2)c1 | – | 1.08% | 3.6% | – | 7.12% | – | 6.53% | 6.69% | – | 6.88% | -8.91% | -5.54% | 0.47% | 0.95% | – | 7.87% | – |
| COc1ccc(S(=O)(=O)c2cc(OC)ccc2S(=O)(=O)c2ccc([C@H](C)NS(C)(=O)=O)cc2)cc1 | – | -1.6% | -2.24% | – | – | – | 31.9% | 96.5% | – | 11.3% | 32.1% | 1.41% | 0.09% | 14.2% | – | 18.7% | – |
| COC(=O)C1=C(C)NC(C)=C(C(=O)OCCCN2CCC(c3ccccc3)(c3ccccc3)CC2)[C@H]1c1cccc([N+](=O)[O-])c1 | 83.9% | 22.1% | 30.9% | 61.2% | 62.2% | 27.4% | -1.08% | 71.6% | 94.1% | 92% | 98.7% | – | 90% | 51.8% | 75.9% | 58.1% | 84.6% |
| CC(C)C[C@H](NC(=O)N1CCCCCC1)C(=O)N[C@H](Cc1cn(C)c2ccccc12)C(=O)N[C@H](Cc1ccccn1)C(=O)O | – | -6.68% | 0.87% | – | – | – | -0.06% | – | – | 16.7% | 9.3% | -0.31% | – | -0.58% | – | – | – |
| NC[C@@H]1O[C@H](C23CC4CC(CC(C4)C2)C3)Cc2c1ccc(O)c2O | 3.98% | 29.6% | -5.8% | 12.7% | 24.8% | -6.56% | 3.87% | 19.1% | 3.82% | – | 81.7% | – | 64.3% | 82.7% | 43.5% | 31.6% | 25.1% |
| N#Cc1ccc2[nH]cc(CCCCN3CCN(c4ccc5oc(C(N)=O)cc5c4)CC3)c2c1 | 75.5% | 56.2% | 1.49% | 12.6% | 31.9% | 24.6% | 43% | 30.3% | 35.4% | 62.7% | 80.3% | – | 47.1% | 36.9% | 80% | 43.3% | 82.4% |
| O=C(O)CC/C=C\C[C@@H]1CO[C@H](c2ccccc2Cl)O[C@@H]1c1ccccc1O | – | -6.03% | – | 6.61% | 6.14% | – | 3.61% | -3.05% | 46% | 8.82% | – | 29.5% | – | -4.01% | – | -5.63% | – |
| Cc1cc(C)cc(C(=O)N(C)[C@H](Cc2ccc(-c3ccccc3)cc2)C(=O)N[C@@H](Cc2c[nH]c3ccccc23)C(=O)O)c1 | 7.51% | 3.37% | 12.5% | 0.07% | – | -4.33% | 31.2% | – | – | -1.4% | – | 34.4% | 7.27% | – | – | – | – |
| Cc1nc(-c2ccc(-c3ccc(C(=O)N4CCc5cc6c(cc54)C4(CCN(C)CC4)CO6)cc3)c(C)c2)no1 | 66.3% | 10.4% | 66.4% | 73% | 35.6% | 20.5% | 67.6% | -6.79% | -1.39% | -2.77% | 95.4% | – | 69.5% | 57.1% | 90.9% | 85.3% | 25.5% |
| CCc1cc(C(C)=O)c(O)cc1OCCCCCC(C)(C)c1nn[nH]n1 | 19.5% | – | – | 8.78% | 0.93% | 34.3% | 12.7% | 8.17% | – | 8.2% | – | 0.68% | 15.2% | – | – | 0.93% | – |
| CCc1cc2c(c(CC)n1)CCC(=O)N2Cc1ccc(-c2ccccc2-c2nnn[nH]2)cc1 | – | -4.26% | 1.99% | – | – | – | 29.2% | 10.1% | – | 51.6% | 8.89% | 9.68% | 3.95% | – | – | – | – |
